This is an account of results in publication PMC11506356, “Selective Inhibition of Deamidated Triosephosphate Isomerase by Disulfiram, Curcumin, and Sodium Dichloroacetate: Synergistic Therapeutic Strategies for T-Cell Acute Lymphoblastic Leukemia in Jurkat Cells” (Biomolecules, 2024).

Assay [1] has as its target T1, deamidated triosephosphate isomerase (dTPI) (Homo sapiens, UniProt P60174, N16D).
T1 construct: gene TPI1; recombinant human TPI, His-TEV tag removed
Nature of the assay: recombinant enzyme inactivation ([…] h, […] °C; coupled NADH assay), ANS fluorescence. It is filed as biochemical. Particulars: 2 h; read-out: recombinant enzyme inactivation (2 h, 37 °C; coupled NADH assay), ANS fluorescen.

Assay [2] has as its target T1, deamidated triosephosphate isomerase (dTPI). Briefly: recombinant enzyme inactivation ([…] h, […] °C; coupled NADH assay), Ellman free-thiol quantification, ANS fluorescence. It is filed as biochemical. Particulars: 2 h; read-out: recombinant enzyme inactivation (2 h, 37 °C; coupled NADH assay), Ellman free-th. For orientation: Ellman's reagent forms a yellow product with free thiols.

T1 sequence (P60174 2-249 N16D): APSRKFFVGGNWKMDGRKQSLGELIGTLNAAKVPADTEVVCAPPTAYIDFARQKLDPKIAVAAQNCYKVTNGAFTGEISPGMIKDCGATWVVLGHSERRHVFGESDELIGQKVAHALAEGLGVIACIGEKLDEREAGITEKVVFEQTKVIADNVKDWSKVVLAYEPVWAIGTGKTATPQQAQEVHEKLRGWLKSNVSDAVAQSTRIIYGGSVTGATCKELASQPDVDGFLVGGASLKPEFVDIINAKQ

As for `COc1cc(/C=C/C(=O)CC(=O)/C=C/c2ccc(O)c(OC)c2)ccc1O` [CU, curcumin], in assay [1], the IC90 was around 1500 µM.

Regarding `CCN(CC)C(=S)SSC(=S)N(CC)CC` [DS, disulfiram], the IC100 in assay [2] turned out to be 250 µM.
